In experiment [1] the target is rTRPV1 T550I (Rattus norvegicus, UniProt O35433, T550I). The experiment can be described thus: biochemical. It is filed as binding.
Experiment [2] concerns the target rTRPV1 M547L (Rattus norvegicus, UniProt O35433, M547L). The experiment can be described thus: biochemical. In kind it is binding.
Experiment [3] addresses rTRPV1 Y511F (Rattus norvegicus, UniProt O35433, Y511F). The experiment can be described thus: biochemical. It is filed as binding.
For experiment [4], the target named is rTRPV1 T550A (Rattus norvegicus, UniProt O35433, T550A). In words: biochemical. In kind it is binding.
Experiment [5] has as its target rTRPV1 WT (Rattus norvegicus, UniProt O35433). The experiment can be described thus: biochemical. It is filed as binding.
Experiment [6] concerns the target rTRPV1 T550S (Rattus norvegicus, UniProt O35433, T550S). The experiment can be described thus: biochemical. It is filed as binding.
The target of experiment [7] is TRPV1. Particulars: cited from earlier work.

Molecules are shown by their SMILES.

Sequence of rTRPV1 WT (O35433 whole entry): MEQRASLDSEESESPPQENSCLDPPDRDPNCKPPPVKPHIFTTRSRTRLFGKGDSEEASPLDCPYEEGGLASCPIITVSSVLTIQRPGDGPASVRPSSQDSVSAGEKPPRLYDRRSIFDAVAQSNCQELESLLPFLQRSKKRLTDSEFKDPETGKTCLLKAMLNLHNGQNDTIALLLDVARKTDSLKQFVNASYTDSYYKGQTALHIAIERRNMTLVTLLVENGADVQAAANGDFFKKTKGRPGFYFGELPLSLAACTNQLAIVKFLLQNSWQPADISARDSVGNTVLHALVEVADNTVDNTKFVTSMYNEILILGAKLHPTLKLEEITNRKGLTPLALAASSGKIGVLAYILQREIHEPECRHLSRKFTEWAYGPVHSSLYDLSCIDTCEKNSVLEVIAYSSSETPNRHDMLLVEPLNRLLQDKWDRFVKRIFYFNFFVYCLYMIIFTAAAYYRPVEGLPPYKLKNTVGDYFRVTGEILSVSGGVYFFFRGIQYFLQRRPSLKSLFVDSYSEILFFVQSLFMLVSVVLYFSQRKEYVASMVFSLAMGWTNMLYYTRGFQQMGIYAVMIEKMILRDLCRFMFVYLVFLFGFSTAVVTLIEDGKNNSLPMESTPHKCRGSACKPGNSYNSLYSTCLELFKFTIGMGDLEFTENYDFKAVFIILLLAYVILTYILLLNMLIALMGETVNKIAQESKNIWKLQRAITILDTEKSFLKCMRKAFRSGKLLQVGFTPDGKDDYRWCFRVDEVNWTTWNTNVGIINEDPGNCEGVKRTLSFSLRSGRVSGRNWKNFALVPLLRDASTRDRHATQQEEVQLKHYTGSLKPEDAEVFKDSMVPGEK
Sequence of rTRPV1 M547L (O35433 whole entry M547L): as the sequence (O35433 whole entry) above, with M547L counted along it
Sequence of rTRPV1 Y511F (O35433 whole entry Y511F): as the sequence (O35433 whole entry) above, with Y511F counted along it
Sequence of rTRPV1 T550S (O35433 whole entry T550S): as the sequence (O35433 whole entry) above, with T550S counted along it
Sequence of rTRPV1 T550A (O35433 whole entry T550A): as the sequence (O35433 whole entry) above, with T550A counted along it
Sequence of rTRPV1 T550I (O35433 whole entry T550I): as the sequence (O35433 whole entry) above, with T550I counted along it

For the compound `C=C(C)[C@]12C[C@@H](C)[C@@]34O[C@](Cc5ccccc5)(O[C@@H]1[C@@H]3C=C(COC(=O)Cc1ccc(O)c(OC)c1)C[C@]1(O)C(=O)C(C)=C[C@@H]41)O2` [RTX, resiniferatoxin], the Kd (in general, a measure of binding affinity in units of concentration) in experiment [1] was 4.16 ± 0.82 nM; in experiment [2] it was 2.38 ± 0.24 nM; in experiment [3], 0.79 ± 0.13 nM; in experiment [4] it was 0.417 ± 0.062 nM; in experiment [5], 0.203 ± 0.02 nM; in experiment [6], 0.233 ± 0.022 nM. Moreover, the Maximal binding capacity in experiment [5] stood at 6400 fmol/mg protein. Besides, the Ratio in experiment [5] is recorded as 1.0.
As for `COc1cc(CNC(=S)NCC(COC(=O)C(C)(C)C)Cc2ccc(C(C)(C)C)cc2)ccc1O` (stereo not drawn) [sRTX, N-{3-pivaloyloxy-2-(4-t-butylbenzyl)propyl}-N′-(4-hydroxyl-3-methoxybenzyl)thiourea], the Ki (usually a dissociation constant, usually derived from enzyme kinetics or from competition with a known ligand) in experiment [7] was 11 nM.

The values are drawn from paper PMC3420359 (Journal of computer-aided molecular design, 2011).
